In patent US5750515A, “Cancer metastasis inhibitor” (Taiho Pharmaceutical Co., Ltd., priority 1995, dated 1998):

Tests used:
[1] = system: 4-1ST (human stomach cancer); experiment: Tumor growth inhibitory effect (4-1ST subcutaneous solid tumor in nude mice); assay type: in vivo, human cells in SPF BALB/c-nu/nu male mice; conditions: tumor weight at 3 weeks vs non-treated
Procedure: (§1) Each of 4-1ST (human stomach cancer) and LC-6 (human lung cancer) cell lines grown subcutaneously as solid tumors in mice, were cut into rectangular pieces measuring 2 mm×2 mm×2 mm and were then transplanted subcutaneously into the right backs of SPF BALB/c-nu/nu male mice (7 week old) by use of a needle for transplantation. Using the equation shown below, the estimated volume of tumor was determined. When the estimated volume of tumor became 100-250 mm^3, the mice were allocated. To the grouped mice were administered various doses of Am 555S, 5-fluorouracil (5-FU) and Cisplatin (CDDP). […] More specifically, Am 555S was orally administered for three terms, each term consisting of five consecutive administration days and two non-administration days, 5-FU was administered intravenously through the tail vein for consecutive five days, and CDDP was administered once intravenously through the tail vein. After three weeks from the administration commencement, the mice were killed and the tumor growth inhibition rates were determined from the rate of tumor weights to that of the non-treated group, so as to determine the effect of growth inhibition of the tumor.

[2] = system: genes considered to be related to cancer metastasis and infiltration; conditions: as reported in the background art; concentration dependent manner; cited from earlier work
[3] = system: TMK-1 (human stomach cancer); experiment: Experimental liver metastasis (TMK-1 human stomach cancer transplanted into the spleen of nude mice), increased life span; assay type: in vivo, human cells in SPF BALB/c-nu/nu male mice
Procedure: (§2) The effect of cancer metastasis inhibition was measured using the compounds Re 80, Am 55S and Am 555S.
(§3) KM12L4 (human colon cancer), TMK-1 (human stomach cancer) and A549 (human lung cancer) were each transplanted into the spleen of SPF BALB/c-nu/nu male mice (7 week old) in an amount of 1×10^6 cells/mouse. This test was conducted using experimental liver metastasis models.
(§4) The test procedure followed the modified Morikawa et al method (Cancer Research, 48, 1943-1948, (1988)). That is, the in vitro cultured cells were collected using 0.25% trypsin--0.02% EDTA or 0.02% EDTA and were then washed with physiological phosphate buffer saline. After the number of the cells was counted, the cells were diluted to 10^6 cells/50 μl. Next, each mouse was incised at their left abdomen after being anesthetized with 30 mg/kg of Nembutal and then the spleen was exposed. With a 28 gauge needle attached syringe, 50 μl of the above-prepared suspension containing 1×10^6 cells/50 μl was injected into the spleen. After two minutes, two portions of blood vessels of the spleen were ligated using a Liga clip and the spleen was removed. The incision site was then closed using a kyapher suture. Each of the compounds Re 80, Am 55S and Am 555S, which is an active ingredient of the cancer metastasis inhibitor of the invention, was suspended in 5% ethanol/olive oil or in 0.5% carboxymethyl cellulose/0.5% Tween 80 (Registered Trademark, produced by Nacalai tesque Co.) and was orally administered to each mouse from next day of the transplantation. In each case, the administration was conducted for three terms, each term consisting of five consecutive administration days and two non-administration days. Evaluation was conducted using the increased life span (ILS) in comparison to the control solvent group as an evaluation index. The ILS of all-trans-retinoic acid (ATRA), known to have cancer metastasis inhibiting properties, was also measured with the same test procedure.

[4] = Toxicity test, oral, 3 weeks; assay type: in vivo, SPF ICR male mice; conditions: consecutive 3 weeks, 6 mice
Procedure: SPF ICR male mice (5 week old) were used as divided into groups each consisting of 6 mice. To the group to be administered with the compound Re 80, the group to be administered with the compound Am 55S and the group to be administered with the compound Am 555S were orally administered 2 mg/kg of the compound Re 80 per day, 640 mg/kg of the compound Am 55S per day and 16 mg/kg of the compound Am 555S per day for consecutive 3 weeks, respectively.

A549 (human lung cancer) = experiment: Experimental liver metastasis (A549 human lung cancer transplanted into the spleen of nude mice), increased life span; assay type: in vivo, human cells in SPF BALB/c-nu/nu male mice
Procedure: as §2, §3, §4

[5] = system: experimental liver metastasis models (KM12L4, TMK-1, A549); experiment: Effect on the experimental liver metastasis, overall (KM12L4, TMK-1 and A549 models); assay type: in vivo, human cells in SPF BALB/c-nu/nu male mice; conditions: for maximum ILS as compared with all-trans-retinoic acid (ATRA) / advantage over all-trans-retinoic acid (ATRA) in ILS: comparison with ATRA, in words; for inhibition of cancer metastasis: conclusion in words; for survival time of the mouse: conclusion in words from Table 1; for maximum value of the ILS as compared with the control group: maximum over cell lines and doses of Table 1
Procedure: as §2, §3, §4

[6] = system: KM12L4 (human colon cancer); experiment: Experimental liver metastasis (KM12L4 human colon cancer transplanted into the spleen of nude mice), increased life span; assay type: in vivo, human cells in SPF BALB/c-nu/nu male mice
Procedure: as §2, §3, §4

LC-6 (human lung cancer) = experiment: Tumor growth inhibitory effect (LC-6 subcutaneous solid tumor in nude mice); assay type: in vivo, human cells in SPF BALB/c-nu/nu male mice; conditions: tumor weight at 3 weeks vs non-treated
Procedure: as §1

[7] = system: 4-1ST (human stomach cancer) and LC-6 (human lung cancer); experiment: Tumor growth inhibitory effect, overall (4-1ST and LC-6); assay type: in vivo, human cells in SPF BALB/c-nu/nu male mice
Procedure: as §1

[8] = 2 mg/kg oral, 3 terms of 5 days on/2 off
[9] = 8 mg/kg oral, 3 terms of 5 days on/2 off

With `O=c1[nH]cc(F)c(=O)[nH]1` [5-FU, 5-fluorouracil, reference compound] the “Tumor Growth Inhibition Rate” value ([1]; 19 mg/kg i.v. (tail vein), consecutive five days) was 50.9.

In the case of `CC1=C(/C=C/C(C)=C/C=C/C(C)=C/C(=O)O)C(C)(C)CCC1` [ATRA, all-trans-retinoic acid, reference compound], the “expression of genes related to cancer metastasis and infiltration” value [2] is given as “can prevent the expression of these genes to interdict metastasis and infiltration of cancer cells in concentration dependent manner” and the “Increased life span (ILS %)” value ([3]; TMK-1, 8 mg/kg, same test procedure, vs control solvent group) is given as 22%.

In the case of `C[Si](C)(C)c1cc(NC(=O)c2ccc(C(=O)O)cc2)cc([Si](C)(C)C)c1` [Am 55S, 4-[3,5-bis(trimethylsilyl)phenylcarbamoyl] benzoic acid], the “Increased life span (ILS %)” value ([3]; po, 100 mg/kg, 120 h) is reported as 39%, the “Increased life span (ILS %)” value ([3]; po, 300 mg/kg, 120 h) is reported as 30% and the death ([4]; 640 mg/kg per day oral) is reported as “No death occurred”. For the same molecule, the notable side effect ([4]; 640 mg/kg per day oral) was “no notable side effect occurred”, the “Increased life span (ILS %)” value (A549 (human lung cancer); po, 100 mg/kg, 120 h) was 37% and the “Increased life span (ILS %)” value (A549 (human lung cancer); po, 300 mg/kg, 120 h) was 6%. For the same molecule, the “maximum ILS as compared with all-trans-retinoic acid (ATRA)” value [5] was “higher”, the “inhibition of cancer metastasis” value [5] was “effective to inhibit cancer metastasis” and the “survival time of the mouse” value [5] was “remarkably prolonged”. For the same molecule, the “maximum value of the ILS as compared with the control group” value [5] was 42%, the “Increased life span (ILS %)” value ([6]; po, 100 mg/kg, 120 h) was 14% and the “Increased life span (ILS %)” value ([6]; po, 300 mg/kg, 120 h) was 42%.

With `C[Si](C)(C)c1cc(C(=O)Nc2ccc(C(=O)O)cc2)cc([Si](C)(C)C)c1` [Am 555S, 4-[3,5-bis(trimethylsilyl)phenylcarboxamide] benzoic acid] the “Tumor Growth Inhibition Rate” value [1, 8] was 2.7, the “Tumor Growth Inhibition Rate” value ([1]; 4 mg/kg oral, 3 terms of 5 days on/2 off) was -4.9 and the “Tumor Growth Inhibition Rate” value [1, 9] was 8.7. For the same molecule, the “Tumor Growth Inhibition Rate” value (LC-6 (human lung cancer); [8]) was 2.7, the “Tumor Growth Inhibition Rate” value (LC-6 (human lung cancer); [9]) was 13.7 and the “Increased life span (ILS %)” value ([3]; TMK-1, 4 mg/kg oral, 3 terms of 5 days on/2 off, vs control solvent group) was 59%. For the same molecule, the “Increased life span (ILS %)” value ([3]; TMK-1, 16 mg/kg oral, 3 terms of 5 days on/2 off, vs control solvent group) was 71%, the death ([4]; 16 mg/kg per day oral) was “No death occurred” and the notable side effect ([4]; 16 mg/kg per day oral) was “no notable side effect occurred”. For the same molecule, the “Increased life span (ILS %)” value (A549 (human lung cancer); A549, 4 mg/kg oral, 3 terms of 5 days on/2 off, vs control solvent group) was 57%, the “Increased life span (ILS %)” value (A549 (human lung cancer); A549, 16 mg/kg oral, 3 terms of 5 days on/2 off, vs control solvent group) was 30% and the “tumor growth inhibition rates as compared with 5-FU and CDDP” value ([7]; comparison in words from Table 2) was “extremely low tumor growth inhibition rates”. For the same molecule, the “tumor growth inhibition activity” value ([7]; conclusion in words from Table 2) was “no tumor growth inhibition activity”, the “advantage over all-trans-retinoic acid (ATRA) in ILS” value [5] was “marked advantages” and the “maximum ILS as compared with all-trans-retinoic acid (ATRA)” value [5] was “higher”. For the same molecule, the “inhibition of cancer metastasis” value [5] was “effective to inhibit cancer metastasis”, the “survival time of the mouse” value [5] was “remarkably prolonged” and the “maximum value of the ILS as compared with the control group” value [5] was 71%. The “Increased life span (ILS %)” value ([6]; KM12L4, 4 mg/kg oral, 3 terms of 5 days on/2 off, vs control solvent group) was 5% and the “Increased life span (ILS %)” value ([6]; KM12L4, 16 mg/kg oral, 3 terms of 5 days on/2 off, vs control solvent group) was 22%.

In the case of `[NH2][Pt]([NH2])([Cl])[Cl]` [CDDP, Cisplatin, reference compound], the “Tumor Growth Inhibition Rate” value (LC-6 (human lung cancer); 7 mg/kg i.v. (tail vein), once) is reported as 52.3.

For `CC1(C)CCC(C)(C)c2cc(C(=O)C=C(O)c3ccc(C(=O)O)cc3)c(O)cc21` [Re 80, 4-[1-hydroxy-3-oxo-3-(5,6,7,8-tetrahydro-5,5,8,8-tetramethyl-3-hydroxy-2-naphthalenyl)-1-propenyl] benzoic acid], the “Increased life span (ILS %)” value ([3]; po, 0.5 mg/kg, 120 h) was 36%, the “Increased life span (ILS %)” value ([3]; po, 2 mg/kg, 120 h) was 50% and the death ([4]; 2 mg/kg per day oral) was “No death occurred”. For the same molecule, the notable side effect ([4]; 2 mg/kg per day oral) was “no notable side effect occurred”, the “Increased life span (ILS %)” value (A549 (human lung cancer); po, 0.5 mg/kg, 120 h) was 19% and the “Increased life span (ILS %)” value (A549 (human lung cancer); po, 2 mg/kg, 120 h) was 22%. For the same molecule, the “advantage over all-trans-retinoic acid (ATRA) in ILS” value [5] was “marked advantages”, the “maximum ILS as compared with all-trans-retinoic acid (ATRA)” value [5] was “higher” and the “inhibition of cancer metastasis” value [5] was “effective to inhibit cancer metastasis”. The “survival time of the mouse” value [5] was “remarkably prolonged”, the “maximum value of the ILS as compared with the control group” value [5] was 50% and the “Increased life span (ILS %)” value ([6]; po, 0.5 mg/kg, 120 h) was 23%. The “Increased life span (ILS %)” value ([6]; po, 2 mg/kg, 120 h) was 34%.
